From patent US12239641B2, “Methods of treating or preventing fibrosis in non-alcoholic fatty liver disease” (priority 2018, dated 2025)
“Also recorded” adds a separate entry of the source.

Columns and labels:
[1] = compared with Yohimbine; cited from earlier work
[2] = system: Primary human hepatic stellate cells; assay: 3D collagen gel contraction of hepatic stellate cells; assay type: cell-based; conditions: 6 hours
Text: Primary human HSCs (huHSC) were isolated from wedge sections of liver tissue obtained from patients with no history of liver disease undergoing liver resection for colorectal metastasis in the Royal Free Hospital, with local Tissue act for patient benefit ethics approval. All the participants provided written informed consent in accordance with the Helsinki Declaration.
Cells isolation in brief: 10 g of total human liver tissue was digested with 0.01% Collagenase, 0.05% Pronase and 0.001% DNase I without performing perfusion. The homogenate was filtered through a 100 µm cell strainer (BD Biosciences) and the flow-through was centrifuged at 50×g for 2 minutes at 4° C. After washing the supernatant, gradient centrifugation was performed at 1400×g for 17 minutes at 4° C. using an 11.5% Optiprep gradient (Sigma-Aldrich Company Ltd.). Finally, the interface was collected and washed. […]
Human and rat HSCs were cultured within 3D collagen gels (Fibroblast-populated collagen lattices; FPCL). […] Gel areas were measured using ImageJ v1.49 software (US National Institutes of Health, Bethesda MD, USA, http://imagej.nih.gov/ij/).

ADRA2a = biological target: T1, ADRA2a (Homo sapiens, UniProt P08913); conditions: some affinity for all; cited from earlier work
T1 sequence (P08913 1-465): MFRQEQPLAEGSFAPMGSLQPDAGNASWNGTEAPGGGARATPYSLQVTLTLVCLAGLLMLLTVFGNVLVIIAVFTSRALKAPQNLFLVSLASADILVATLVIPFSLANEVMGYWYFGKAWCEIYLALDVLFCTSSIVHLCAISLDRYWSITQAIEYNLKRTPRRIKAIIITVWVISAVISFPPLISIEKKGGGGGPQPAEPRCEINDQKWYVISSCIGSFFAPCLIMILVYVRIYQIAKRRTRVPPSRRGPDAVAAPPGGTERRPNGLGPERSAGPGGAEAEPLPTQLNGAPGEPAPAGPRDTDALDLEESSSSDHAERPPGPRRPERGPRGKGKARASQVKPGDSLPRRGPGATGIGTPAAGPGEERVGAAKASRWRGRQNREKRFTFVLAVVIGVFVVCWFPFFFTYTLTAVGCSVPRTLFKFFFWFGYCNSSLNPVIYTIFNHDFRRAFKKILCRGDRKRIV

[3] = system: rat model of NASH induced by a high fat high cholesterol (HFHC) diet; assay: Rat model of NASH induced by HFHC diet: liver weight, fat, AST, histology scores, fibrosis; assay type: in vivo, Sprague Dawley rats
Text: (§1) Animals were studied after 16 weeks of feeding.

[4] = system: noradrenaline (Norepinephrine—NE); assay: Noradrenaline levels (HPLC) in HFHC NASH rats; assay type: in vivo, Sprague Dawley rats; conditions: HFHC+YoHCl vs HFHC
Text: as §1

[5] = system: cytokines and chemokines (Cx3CL1, CxCL5, CCL3); assay: Cytokines and chemokines (ELISA) in HFHC NASH rats; assay type: in vivo, Sprague Dawley rats
Text: as §1

[6] = system: Genes involved in fibrogenesis (TIMP-1 and Collal), MMP2; assay: Expression of genes involved in fibrogenesis in HFHC NASH rats; assay type: in vivo, Sprague Dawley rats
Text: as §1

working memory = assay: Working memory test in HFHC NASH rats; assay type: in vivo, Sprague Dawley rats; conditions: HFHC diet 16 weeks, Yohimbine for the last 8 weeks vs placebo
Text: as §1
Working memory and behavioural testing was through standard psychometric assessments before termination, such as application of the Barnes Maze.

ADRA2A receptors = conditions: HFHC+YoHCl vs HFHC
Protocol: Sprague Dawley rats (240-300 g) were randomly divided into 3 groups (Standard diet, HFHC+placebo, HFHC+Yohimbine). The animals were kept under controlled temperature (20±2° C.) and light (lights on at 08:00-20:00). The standard diet was composed of the following energy sources: 67 g carbohydrates (70 kcal %), 4 g fat (10 kcal %), and 19 g protein (20 kcal %) per 100 g diet. The HFC diet contained 19 g carbohydrates (15 kcal %), 39 g fat (65 kcal %), 2 g cholesterol, and 27 g protein (20 kcal %) per 100 g diet. The study was performed in accordance with local and national guidelines for animal welfare and approved by the institutional Animal Ethics Committee.
Animals were studied after 16 weeks of feeding. Animals in the HFHC group were randomised after 8 weeks of feeding to either treatment with placebo or Yohimbine, in addition to their ongoing diets. Yohimbine Hydrochloride (Product Number Y3125, Sigma-Aldrich, Dorset, UK), an ADRA2A antagonist, was administered in the drinking water at a dosage of 0.4 mg/kg rat/day. In the placebo treated group, an equivalent volume of water was administered. The rats were weighed daily and the Yohimbine treatment weight adjusted.
At the end of 16 weeks of feeding, rats were exsanguinated and the blood and tissues harvested and stored at −80 C for subsequent analyses. […]

[7] = H&E liver, HFHC+YoHCl (n=9) vs HFHC (n=6), 8 weeks treatment
[8] = HFHC model, Yohimbine therapy for 8 weeks, p=0.03

SMILES: COC(=O)[C@@H]1[C@H]2C[C@H]3c4[nH]c5cc(O)ccc5c4CCN3C[C@@H]2CC[C@@H]1O [11-OH Yohimbine]
- half life [1]: longer half life
- oral bioavailability [1]: better oral bioavailability

SMILES: CC1c2ccccc2CN1CC1=NCCN1 (stereo not shown) [BRL44408]
- contraction in a 3D collagen gel ([2]; 5 uM Guanfacine and 5 uM BRL44408 vs guanfacine alone): less contraction

SMILES: N=C(N)NC(=O)Cc1c(Cl)cccc1Cl [Guanfacine]
- contraction in a 3D collagen gel ([2]; 5 uM Guanfacine vs serum free medium): significantly greater contraction

SMILES: COC(=O)[C@H]1[C@H]2C[C@H]3c4[nH]c5ccccc5c4CCN3C[C@H]2CC[C@@H]1O [Rauwolscine]
- selectivity among ADRA2 subtypes (ADRA2a): most selective for ADRA2a

SMILES: COC(=O)[C@@H]1[C@H]2C[C@H]3c4[nH]c5ccccc5c4CCN3C[C@@H]2CC[C@@H]1O [Yohimbine]
- hepatic inflammation score [3, 7]: significant reduction
- hepatic steatosis score [3, 7]: significant reduction
- hepatocyte ballooning score [3, 7]: significant reduction
- non-alcoholic fatty liver disease (NAFLD) activity score (NAS) [3, 7]: significant reduction
- fibrosis (Picro sirius red stained liver) ([3]; HFHC NASH rats with Yohimbine vs without treatment): visually decreased
- Collagen proportionate area (CPA) ([3]; HFHC NASH rats with Yohimbine vs without treatment, n=6 per group, HFHCD vs HFHCD_YoHCl p=0.016): reduced
- liver fat ([3]; HFHC diet 16 wks, Yohimbine for last 8 weeks): reduced
- Liver-body weight ratio ([3]; HFHC diet 16 wks, Yohimbine for last 8 weeks, 0.4 mg/kg rat/day in drinking water, HFHCD vs HFHCD_YoHCl p=0.014): restored
- AST (liver injury) ([3]; HFHC rats after 8 weeks of Yohimbine therapy, HFHCD vs HFHCD_YoHCl p=0.007): decreased
- Levels of noradrenaline (NE) [4]: further but non-statistical increase
- CCL3 protein expression ([5]; HFHC+YoHCl (8 weeks) vs HFHC): decrease markedly
- Cx3CL1 protein expression ([5]; HFHC+YoHCl (8 weeks) vs HFHC): decrease markedly
- CxCL5 protein expression ([5]; HFHC+YoHCl (8 weeks) vs HFHC): decrease markedly
- cytokines and chemokines (liver and systemic inflammation) ([5]; HFHCD_YoHCl vs HFHCD, 16 weeks diet): reduced liver and systemic inflammation
- Collal gene expression [6, 8]: significantly (p=0.03 for both) reduced
- TIMP-1 gene expression [6, 8]: significantly (p=0.03 for both) reduced
- MMP2 expression ([6]; HFHC rats, Yohimbine hydrochloride therapy): reduced
- working memory (working memory): significantly improved; also recorded: improves
- ADRA2A receptor expression in liver tissue (ADRA2A receptors): does not significantly reduce
- selectivity among ADRA2 subtypes (ADRA2a): most selective for ADRA2a
